This passage reports EC50 results from US11040033B2 (Gilead Sciences, Inc., priority 2017, dated 2021).

pEC50: −log10 of the molar value.

T1 sequence (P14902 whole entry): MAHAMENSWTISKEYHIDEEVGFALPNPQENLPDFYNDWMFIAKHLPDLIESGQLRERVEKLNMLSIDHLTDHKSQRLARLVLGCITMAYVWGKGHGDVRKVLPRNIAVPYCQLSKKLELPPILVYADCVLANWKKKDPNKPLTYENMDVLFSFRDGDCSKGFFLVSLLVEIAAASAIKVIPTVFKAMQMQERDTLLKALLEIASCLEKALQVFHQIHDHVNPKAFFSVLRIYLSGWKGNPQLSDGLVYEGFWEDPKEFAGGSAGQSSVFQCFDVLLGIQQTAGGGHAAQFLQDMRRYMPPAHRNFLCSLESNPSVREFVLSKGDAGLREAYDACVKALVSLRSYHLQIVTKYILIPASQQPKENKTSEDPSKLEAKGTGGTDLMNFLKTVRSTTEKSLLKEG

This assay addresses T1, IDO1 (Homo sapiens, UniProt P14902).
T1 construct: HeLa cells were treated with a test compound in the presence of IFNγ, which induces IDO1 expression; endogenous in cells; host or cells: H1-HeLa cells (ATCC #CRL-1958), induced with IFNγ
The assay can be described thus: Cell-based (HeLa) assay for measurement of IDO1 inhibition (kynurenine levels in supernatant after IFNγ induction). The note with it: H1-HeLa cells, IFNγ-induced IDO1, 48 hour incubation, kynurenine absorbance at 480 nm; geometric mean of a minimum of four determinations. In outline:
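HeLa cells (1,250/well, DMEM/10% FBS) exposed to compound (0.5% DMSO) with IFNγ (added as 50 ng/mL solution) for 48 h. Supernatant kynurenine measured after TCA treatment (60 °C, 30 min) with p-dimethylaminobenzaldehyde, A480. EC50 from four-parameter fit normalised to ±IFNγ controls; geometric mean of ≥4 runs.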
Consider `O=C(Nc1ccc(F)cc1)c1cc(-c2cccn3c(-c4cccc(F)c4F)ncc23)cnc1N1CCC1` [Example 94, 2-(azetidin-1-yl)-5-(3-(2,3-difluorophenyl)imidazo[1,5-a]pyridin-8-yl)-N-(4-fluorophenyl)nicotinamide], for which the pEC50 was 6.91. Regarding `Fc1ccc2[nH]c(-c3cc(-c4cccn5c(-c6cccc(F)c6F)ncc45)ccc3C(F)(F)F)nc2c1` [Example 95, 2-(5-(3-(2,3-difluorophenyl)imidazo[1,5-a]pyridin-8-yl)-2-(trifluoromethyl)phenyl)-5-fluoro-1H-benzo[d]imidazole], the pEC50 was 7.61. Take `Fc1ccc2[nH]c(-c3cc(-c4cccn5c(-c6cccc(F)c6F)ncc45)ccc3Cl)nc2c1` [Example 96, 2-(2-chloro-5-(3-(2,3-difluorophenyl)imidazo[1,5-a]pyridin-8-yl)phenyl)-5-fluoro-1H-benzo[d]imidazole]: the pEC50 is 7.17. Under `Cc1ncc(-c2cccn3c(-c4cccc(F)c4F)ncc23)cc1-c1nc2cc(F)ccc2[nH]1` [Example 97, 2-(5-(3-(2,3-difluorophenyl)imidazo[1,5-a]pyridin-8-yl)-2-methylpyridin-3-yl)-5-fluoro-1H-benzo[d]imidazole] stands 7.19; under `Fc1ccc2[nH]c(-c3cc(-c4cccn5c(-c6cccc(F)c6F)ncc45)cnc3C(F)(F)F)nc2c1` [Example 98, 2-(5-(3-(2,3-difluorophenyl)imidazo[1,5-a]pyridin-8-yl)-2-(trifluoromethyl)pyridin-3-yl)-5-fluoro-1H-benzo[d]imidazole], 7.44; under `Cc1ncc(-c2cccn3c(-c4cccc(F)c4F)ncc23)cc1-c1nc2ccccc2[nH]1` [Example 99, 2-(5-(3-(2,3-difluorophenyl)imidazo[1,5-a]pyridin-8-yl)-2-methylpyridin-3-yl)-1H-benzo[d]imidazole], 7.22.
